Counter-ions that a name gives are not always drawn.
Assay: In-vitro dissolution, 900 ml medium (0.1N HCl, pH 4.5 acetate buffer, pH 6.8 or pH 7.5 phosphate buffer), USP Apparatus 1, 75 rpm, 37° C.
Type: physicochemical
Details: for % Released (Bi-layer Tablets): Example 16 coated bi-layer tablet; for % Released (Homogenous Tablets): Example 19 tablet
Procedure: The dissolution profile of the above pharmaceutical composition was determined under the dissolution conditions described below in Tables 1A, 1B, and 1C.

% Released (Example 2 tablet, 0.1N HCl, 1 hr): 15%
% Released (Example 2 tablet, 0.1N HCl, 2 hr): 35%
% Released (Example 2 tablet, 0.1N HCl, 4 hr): 68%
% Released (Example 2 tablet, 0.1N HCl, 8 hr): 99%
% Released (Example 2 tablet, 0.1N HCl, 12 hr): 102%
% Released (Example 2 tablet, 0.1N HCl, 16 hr): 101%
% Released (Example 2 tablet, pH 4.5 acetate buffer, 1 hr): 15%
% Released (Example 2 tablet, pH 4.5 acetate buffer, 2 hr): 35%
% Released (Example 2 tablet, pH 4.5 acetate buffer, 4 hr): 64%
% Released (Example 2 tablet, pH 4.5 acetate buffer, 8 hr): 97%
% Released (Example 2 tablet, pH 4.5 acetate buffer, 12 hr): 101%
% Released (Example 2 tablet, pH 4.5 acetate buffer, 16 hr): 100%
% Released (Example 2 tablet, pH 6.8 phosphate buffer, 1 hr): 14%
% Released (Example 2 tablet, pH 6.8 phosphate buffer, 2 hr): 33%
% Released (Example 2 tablet, pH 6.8 phosphate buffer, 4 hr): 61%
% Released (Example 2 tablet, pH 6.8 phosphate buffer, 8 hr): 92%
% Released (Example 2 tablet, pH 6.8 phosphate buffer, 12 hr): 96%
% Released (Example 2 tablet, pH 6.8 phosphate buffer, 16 hr): 96%
% Released (Example 3 tablet, 0.1N HCl, 1 hr): 14%
% Released (Example 3 tablet, 0.1N HCl, 2 hr): 32%
% Released (Example 3 tablet, 0.1N HCl, 4 hr): 63%
% Released (Example 3 tablet, 0.1N HCl, 8 hr): 102%
% Released (Example 3 tablet, 0.1N HCl, 12 hr): 106%
% Released (Example 3 tablet, 0.1N HCl, 16 hr): 105%
% Released (Example 3 tablet, pH 4.5 acetate buffer, 1 hr): 13%
% Released (Example 3 tablet, pH 4.5 acetate buffer, 2 hr): 29%
% Released (Example 3 tablet, pH 4.5 acetate buffer, 4 hr): 57%
% Released (Example 3 tablet, pH 4.5 acetate buffer, 8 hr): 96%
% Released (Example 3 tablet, pH 4.5 acetate buffer, 12 hr): 102%
% Released (Example 3 tablet, pH 4.5 acetate buffer, 16 hr): 101%
% Released (Example 3 tablet, pH 6.8 phosphate buffer, 1 hr): 13%
% Released (Example 3 tablet, pH 6.8 phosphate buffer, 2 hr): 29%
% Released (Example 3 tablet, pH 6.8 phosphate buffer, 4 hr): 59%
% Released (Example 3 tablet, pH 6.8 phosphate buffer, 8 hr): 99%
% Released (Example 3 tablet, pH 6.8 phosphate buffer, 12 hr): 104%
% Released (Example 3 tablet, pH 6.8 phosphate buffer, 16 hr): 104%
% Released (Example 5 tablet, 0.1N HCl, 1 hr): 13%
% Released (Example 5 tablet, 0.1N HCl, 2 hr): 26%
% Released (Example 5 tablet, 0.1N HCl, 4 hr): 49%
% Released (Example 5 tablet, 0.1N HCl, 8 hr): 81%
% Released (Example 5 tablet, 0.1N HCl, 12 hr): 97%
% Released (Example 5 tablet, 0.1N HCl, 16 hr): 98%
% Released (Example 6 tablet, 0.1N HCl, 1 hr): 16%
% Released (Example 6 tablet, 0.1N HCl, 2 hr): 34%
% Released (Example 6 tablet, 0.1N HCl, 4 hr): 63%
% Released (Example 6 tablet, 0.1N HCl, 8 hr): 97%
% Released (Example 6 tablet, 0.1N HCl, 12 hr): 100%
% Released (Example 6 tablet, 0.1N HCl, 16 hr): 100%
% Released (Example 7 tablet, 0.1N HCl, 1 hr): 2%
% Released (Example 7 tablet, 0.1N HCl, 2 hr): 7%
% Released (Example 7 tablet, 0.1N HCl, 4 hr): 19%
% Released (Example 7 tablet, 0.1N HCl, 8 hr): 44%
% Released (Example 7 tablet, 0.1N HCl, 12 hr): 63%
% Released (Example 7 tablet, 0.1N HCl, 16 hr): 77%
% Released (Example 8 tablet, 0.1N HCl, 1 hr): 0%
% Released (Example 8 tablet, 0.1N HCl, 2 hr): 1%
% Released (Example 8 tablet, 0.1N HCl, 4 hr): 6%
% Released (Example 8 tablet, 0.1N HCl, 8 hr): 19%
% Released (Example 8 tablet, 0.1N HCl, 12 hr): 31%
% Released (Example 8 tablet, 0.1N HCl, 16 hr): 40%
% Released (Example 9 tablet, 0.1N HCl, 1 hr): 17%
% Released (Example 9 tablet, 0.1N HCl, 2 hr): 48%
% Released (Example 9 tablet, 0.1N HCl, 3 hr): 74%
% Released (Example 9 tablet, 0.1N HCl, 4 hr): 93%
% Released (Example 9 tablet, 0.1N HCl, 6 hr): 104%
% Released (Example 9 tablet, 0.1N HCl, 8 hr): 103%
% Released (Example 9 tablet, 0.1N HCl, 10 hr): 103%
% Released (Example 10 tablet, 0.1N HCl, 1 hr): 14%
% Released (Example 10 tablet, 0.1N HCl, 2 hr): 32%
% Released (Example 10 tablet, 0.1N HCl, 4 hr): 59%
% Released (Example 10 tablet, 0.1N HCl, 8 hr): 94%
% Released (Example 10 tablet, 0.1N HCl, 12 hr): 99%
% Released (Example 10 tablet, 0.1N HCl, 16 hr): 99%
% Released (Example 11 tablet, 0.1N HCl, 1 hr): 16%
% Released (Example 11 tablet, 0.1N HCl, 2 hr): 33%
% Released (Example 11 tablet, 0.1N HCl, 4 hr): 56%
% Released (Example 11 tablet, 0.1N HCl, 8 hr): 88%
% Released (Example 11 tablet, 0.1N HCl, 12 hr): 97%
% Released (Example 11 tablet, 0.1N HCl, 16 hr): 97%
% Released (Example 12 tablet, 0.1N HCl, 1 hr): 8%
% Released (Example 12 tablet, 0.1N HCl, 2 hr): 29%
% Released (Example 12 tablet, 0.1N HCl, 3 hr): 47%
% Released (Example 12 tablet, 0.1N HCl, 4 hr): 63%
% Released (Example 12 tablet, 0.1N HCl, 5 hr): 77%
% Released (Example 12 tablet, 0.1N HCl, 6 hr): 92%
% Released (Example 12 tablet, 0.1N HCl, 7 hr): 98%
% Released (Example 12 tablet, 0.1N HCl, 8 hr): 102%
% Released (Example 13 tablet, 0.1N HCl, 1 hr): 9%
% Released (Example 13 tablet, 0.1N HCl, 2 hr): 28%
% Released (Example 13 tablet, 0.1N HCl, 3 hr): 45%
% Released (Example 13 tablet, 0.1N HCl, 4 hr): 60%
% Released (Example 13 tablet, 0.1N HCl, 6 hr): 83%
% Released (Example 13 tablet, 0.1N HCl, 8 hr): 96%
% Released (Example 13 tablet, 0.1N HCl, 10 hr): 99%
% Released (Example 13 tablet, 0.1N HCl, 12 hr): 100%
% Released (Example 13 tablet, 0.1N HCl, 16 hr): 100%
% Released (Example 14 tablet, 0.1N HCl, 4 hr): 56%
% Released (Example 14 tablet, 0.1N HCl, 6 hr): 76%
% Released (Example 14 tablet, 0.1N HCl, 8 hr): 92%
% Released (Example 14 tablet, 0.1N HCl, 10 hr): 99%
% Released (Bi-layer Tablets) (0.1N HCl, 1 hr): 9.47%
% Released (Bi-layer Tablets) (0.1N HCl, 2 hr): 27.06%
% Released (Bi-layer Tablets) (0.1N HCl, 3 hr): 45.32%
% Released (Bi-layer Tablets) (0.1N HCl, 4 hr): 60.81%
% Released (Bi-layer Tablets) (0.1N HCl, 5 hr): 74.22%
% Released (Bi-layer Tablets) (0.1N HCl, 6 hr): 83.48%
% Released (Bi-layer Tablets) (0.1N HCl, 7 hr): 90.11%
% Released (Bi-layer Tablets) (0.1N HCl, 8 hr): 93.47%
% Released (Homogenous Tablets) (0.1N HCl, 1 hr): 16.65%
% Released (Homogenous Tablets) (0.1N HCl, 2 hr): 40.32%
% Released (Homogenous Tablets) (0.1N HCl, 3 hr): 59.61%
% Released (Homogenous Tablets) (0.1N HCl, 4 hr): 75.31%
% Released (Homogenous Tablets) (0.1N HCl, 5 hr): 86.68%
% Released (Homogenous Tablets) (0.1N HCl, 6 hr): 94.46%
% Released (Homogenous Tablets) (0.1N HCl, 7 hr): 99.30%
% Released (Homogenous Tablets) (0.1N HCl, 8 hr): 101.01%
Compound: CN(C)CCC[C@@]1(c2ccc(F)cc2)OCc2cc(C#N)ccc21 [Escitalopram Ox, escitalopram oxalate]

— patent US20090246276A1, “Pharmaceutical Compositions” (priority 2008, published 2009)
